As a reminder, the IC50 is the concentration needed to halve the response being measured.

The nature of assay [1]: Inhibition of mouse brain monoamine oxidase by Krajl method.
In assay [2] the test system is Liver microsomes. Description: Antioxidant activity in rat liver microsomes assessed as inhibition of lipid peroxidation by TBA method. Type of assay: functional, Microsome. For orientation: Liver microsomes are a subcellular fraction often used to study metabolism.
Assay [3] is filed under the species Mus musculus. Description: Inhibition of mouse brain monoamine oxidase up to 70 ug/mL by Krajl method.

In brackets after ≈: the same amount, converted by molar mass. Activity calls are given as the source filed them. No cut-off for these calls is given here.

In assay [1], `COc1c(OC)c(O)c2oc(=O)ccc2c1OC` yielded an IC50 of 44.5 µg/mL (≈ 176 µM).

For `COc1cc([C@H]2Oc3c(OC)cc4ccc(=O)oc4c3O[C@@H]2CO)cc(OC)c1O` [CLEOMISCOSIN C], the concentration for half-maximal inhibition (IC50) in assay [2] came to 0.7 µg/mL (≈ 1.68 µM).

For the molecule `COc1cc([C@H]2Oc3c(OC)cc4ccc(=O)oc4c3O[C@@H]2CO)ccc1O` [CLEOMISCOSIN A], in assay [2], the IC50 came to 9 µg/mL (≈ 23.3 µM).

In assay [1], `COc1cc2ccc(=O)oc2cc1O` [SCOPOLETIN] had an IC50 of 19.4 µg/mL (≈ 101 µM).

Turning to `COc1cc([C@@H]2Oc3c(c(OC)cc4ccc(=O)oc34)O[C@H]2CO)cc(OC)c1O` [CLEOMISCOSIN D], the IC50 in assay [2] was determined as 5.5 µg/mL (≈ 13.2 µM).

In the case of `COc1cc([C@H]2Oc3c(OC)cc4ccc(=O)oc4c3O[C@@H]2C)cc(OC)c1O`, the 50% inhibitory concentration (IC50) in assay [2] was 1.4 µg/mL (≈ 3.5 µM). In assay [3], the result was inactive.

Take VITAMIN E: in assay [2], the IC50 was 0.8 µg/mL.

The values above are taken from ChEMBL document CHEMBL1156348, “Coumarins with monoamine oxidase inhibitory activity and antioxidative coumarino-lignans from Hibiscus syriacus” (J Nat Prod, 2001).
